Data reported in patent US20250268852A1, “MICROBIOTA IMPROVING AGENT” (SANYO CHEMICAL INDUSTRIES, LTD., priority 2022, published 2025).
Peptide text beside a SMILES is read from it.

Test: Amount of magnesium captured per 100 g of substance (X), ion-selective electrode method
Type: physicochemical
Experimental: As for the substance (X), the amount of magnesium captured per 100 g of the substance (X) is preferably 1 g or more, as measured by the ion-selective electrode method.
When the substance (X) is a hydrate, 100 g of the substance (X) refers to 100 g by weight excluding hydration water.
The measurement by the ion-selective electrode method is performed using 2 mM of the substance (X) relative to a 1 mM aqueous MgCl2 solution having a temperature of 20° C. and a pH of 7.
Each substance (X) was subjected to measurement of the amount (g) of magnesium captured per 100 g of the substance (X) by the ion-selective electrode method as follows. For (X-5), the amount of magnesium captured per 100 g of Na2WO4 contained in (X-5) was measured. For (X-16), the amount of magnesium captured per 100 g of adenosine triphosphate disodium contained in (X-16) was measured.
The measurement by the ion-selective electrode method was performed using 2 mM of the substance (X) relative to a 1 mM aqueous MgCl2 solution having a temperature of 20° C. and a pH of 7.

Amount of magnesium (g) captured per 100 g of substance (X) [g]	Structure (SMILES)
15	O=C(O)CC(O)C(=O)O (stereo not shown) [Example X-8, Malic acid]
3	CC(=O)CC(=O)c1ccccc1 [Example X-3, Benzoylacetone]
2	CC(=O)CCC(=O)O [Example X-4, Levulinic acid]
8	O=C(O)CNCC(=O)O [Example X-13, Iminodiacetic acid]
9	O=C(O)C(O)C(O)C(=O)O (stereo not shown) [Example X-15, Tartaric acid]
2	N[C@@H](CCC(=O)O)C(=O)O [Example X-7, Glutamic acid]
20	O=C(O)CC(O)(CC(=O)O)C(=O)O [Example X-9, Citric acid]
2	NCC(=O)NCC(=O)O [Example X-6, Glycylglycine] (H-Gly-Gly-OH)
15	O=C[C@H](O)[C@@H](O)[C@H](O)[C@H](O)C(=O)O [Example X-11, Glucuronic acid]
3	CC(=O)CC(C)=O [Example X-2, Acetylacetone]

Continued, compound first:

Structure (SMILES)	Amount of magnesium (g) captured per 100 g of substance (X) [g]
O=P([O-])([O-])OP(=O)([O-])OP(=O)([O-])[O-].[Na+].[Na+].[Na+].[Na+].[Na+] [Example X-1, Pentasodium triphosphate]	5
O.O.[Na+].[Na+].[O]=[W](=[O])([O-])[O-] [Example X-5, Sodium tungstate dihydrate]	2
Nc1ncnc2c1ncn2[C@@H]1O[C@H](COP(=O)([O-])OP(=O)([O-])OP(=O)(O)O)[C@@H](O)[C@H]1O.O.O.O.[Na+].[Na+] [Example X-16, Adenosine triphosphate disodium trihydrate]	5
O=C(O)CN(CCN(CC(=O)O)CC(=O)O)CC(=O)O [Example X-12, Ethylenediaminetetraacetic acid]	10
O=C(O)[C@H](O)[C@@H](O)[C@H](O)[C@H](O)CO [Example X-10, Gluconic acid]	30
Oc1cccc2cccnc12 [Example X-14, 8-Quinolinol]	2
